# Biological target: GHS-R (Homo sapiens, UniProt Q92847)
# Assay: GHS-R antagonist activity (Ki) in a cell based assay
# Procedure: Cell-Based Activity Assays. For example, the ability of the compound to modulate accumulation of a second messenger signaling component downstream of GHS-R can be evaluated. For example, inositol phosphates (IP), as a result of Gq signaling in a mammalian cell, e.g., a Cos-7 cells. Other tissue culture cells, Xenopus oocytes, and primary cells can also be used.
# Phosphatidylinositol turnover assay. One day after transfection COS-7 cells are incubated for 24 hours with 5 μCi of [^3H]-myo-inositol in 1 ml medium supplemented with 10% fetal calf serum, 2 mM glutamine and 0.01 mg/ml gentamicin per well. Cells are then washed twice in buffer, 20 mM HEPES, pH 7.4, supplemented with 140 mM NaCl, 5 mM KCl, 1 mM MgSO4, 1 mM CaCl2, 10 mM glucose, 0.05% (w/v) bovine serum; and incubated in 0.5 ml buffer supplemented with 10 mM LiCl at 37° C. for 30 min. For some assays, it is also useful to incubate the cells with adenosine deaminase ADA (200 U/mg, Boehringer Mannheim, Germany) for 30 min in a concentration of 1 U/ml.
# After incubation with the compound of interest for 45 min at 37° C., cells are extracted with 10% ice-cold perchloric acid and placed on ice for 30 min. The resulting supernatants are neutralized with KOH in HEPES buffer, and [^3H]-inositol phosphate is purified on Bio-Rad AG 1-X8 anion exchange resin as described. Assays can be run in duplicate, triplicate, etc. […]
# GHS-R, sequence (Q92847 whole entry, species assumed): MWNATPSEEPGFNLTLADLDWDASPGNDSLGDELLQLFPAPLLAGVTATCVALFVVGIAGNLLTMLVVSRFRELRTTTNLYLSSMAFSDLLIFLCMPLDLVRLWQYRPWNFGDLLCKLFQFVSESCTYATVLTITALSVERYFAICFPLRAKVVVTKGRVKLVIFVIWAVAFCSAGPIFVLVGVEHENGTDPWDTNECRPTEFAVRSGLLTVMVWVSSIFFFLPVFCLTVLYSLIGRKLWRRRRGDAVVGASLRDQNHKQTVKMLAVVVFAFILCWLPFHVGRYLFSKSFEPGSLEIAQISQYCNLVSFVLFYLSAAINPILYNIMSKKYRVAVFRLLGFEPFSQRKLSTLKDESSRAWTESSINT
row,Ki,Compound
1,< 100 nM,"CCN(CC)CCCS(=O)(=O)N[C@H](CCc1ccccc1)c1nc(-c2ccc3ncsc3c2)n[nH]1 [Compound 44, 3-Diethylamino-propane-1-sulfonic acid [(R)-1-(5-benzothiazol-6-yl-2H-[1,2,4]triazol-3-yl)-3-phenyl-propyl]-amide]"
2,≥ 1000 nM,"CCN(CC)CCCS(=O)(=O)N[C@H](COCc1ccccc1)c1nc(-c2cccnc2)no1 [Compound 45, 3-Diethylamino-propane-1-sulfonic acid [(R)-2-benzyloxy-1-(3-pyridin-3-yl-[1,2,4]oxadiazol-5-yl)-ethyl]-amide]"
3,100 to 500 nM,"CCN(CC)CCS(=O)(=O)N[C@H](CCc1ccccc1)c1nc(-c2c(OC)cccc2OC)no1 [Compound 46, 2-Diethylamino-ethanesulfonic acid {(R)-1-[3-(2,6-dimethoxy-phenyl)-[1,2,4]oxadiazol-5-yl]-3-phenyl-propyl}-amide]"
4,< 100 nM,"CCN(CC)CCCS(=O)(=O)N[C@H](CCc1ccccc1)c1nc(-c2ccc3c(c2)OCCO3)n[nH]1 [Compound 47, 3-Diethylamino-propane-1-sulfonic acid {(R)-1-[5-(2,3-dihydro-benzo[1,4]dioxin-6-yl)-2H-[1,2,4]triazol-3-yl]-3-phenyl-propyl}-amide]"
5,100 to 500 nM,"CCN(CC)CCCS(=O)(=O)N[C@H](CCc1ccccc1)c1nc(-c2ccccc2Cl)no1 [Compound 48, 3-Diethylamino-propane-1-sulfonic acid {(R)-1-[3-(2-chloro-phenyl)-[1,2,4]oxadiazol-5-yl]-3-phenyl-propyl}-amide]"
6,≥ 1000 nM,"CCN(CC)CCS(=O)(=O)N[C@H](COCc1ccccc1)c1nc(-c2ccccc2OC)no1 [Compound 49, 2-Diethylamino-ethanesulfonic acid {(R)-2-benzyloxy-1-[3-(2-methoxy-phenyl)-[1,2,4]oxadiazol-5-yl]-ethyl}-amide]"
7,< 100 nM,"CCN(CC)CCCS(=O)(=O)N[C@H](CCc1ccccc1)c1nc(-c2cccc(C#N)c2)n[nH]1 [Compound 50, 3-Diethylamino-propane-1-sulfonic acid {(R)-1-[5-(3-cyano-phenyl)-2H-[1,2,4]triazol-3-yl]-3-phenyl-propyl}-amide]"
8,≥ 1000 nM,"CCN(CC)CCCS(=O)(=O)N[C@H](COCc1ccccc1)c1nc(-c2ccncc2)no1 [Compound 51, 3-Diethylamino-propane-1-sulfonic acid [(R)-2-benzyloxy-1-(3-pyridin-4-yl-[1,2,4]oxadiazol-5-yl)-ethyl]-amide]"
9,100 to 500 nM,"CCN(CC)CCCS(=O)(=O)N[C@H](CCc1ccccc1)c1nc(-c2c(C)cccc2C)no1 [Compound 52, 3-Diethylamino-propane-1-sulfonic acid {(R)-1-[3-(2,6-dimethyl-phenyl)-[1,2,4]oxadiazol-5-yl]-3-phenyl-propyl}-amide]"
10,< 100 nM,"CCN(CC)CCCS(=O)(=O)N[C@H](CCc1ccccc1)c1nc(-c2cccc(Br)c2)n[nH]1 [Compound 53, 3-Diethylamino-propane-1-sulfonic acid {(R)-1-[5-(3-bromo-phenyl)-2H-[1,2,4]triazol-3-yl]-3-phenyl-propyl}-amide]"
11,100 to 500 nM,"CCN(CC)CCS(=O)(=O)N[C@H](CCc1ccccc1)c1nc(-c2cccnc2Cl)no1 [Compound 54, 2-Diethylamino-ethanesulfonic acid {(R)-1-[3-(2-chloro-pyridin-3-yl)-[1,2,4]oxadiazol-5-yl]-3-phenyl-propyl}-amide]"
12,< 100 nM,"CCN(CC)CCCS(=O)(=O)N[C@H](CCc1ccccc1)c1nc(Cc2ccc3c(c2)OCO3)no1 [Compound 55, 3-Diethylamino-propane-1-sulfonic acid [(R)-1-(3-benzo[1,3]dioxol-5-ylmethyl-[1,2,4]oxadiazol-5-yl)-3-phenyl-propyl]-amide]"
13,100 to 500 nM,"CCN(CC)CCCS(=O)(=O)N[C@H](CCc1ccccc1)c1nc(Cc2ccc(F)c(F)c2)n[nH]1 [Compound 56, 3-Diethylamino-propane-1-sulfonic acid {(R)-1-[5-(3,4-difluoro-benzyl)-2H-[1,2,4]triazol-3-yl]-3-phenyl-propyl}-amide]"

# Source: patent US7829589B2, “Sulfonamide compounds and uses thereof” (Elixir Pharmaceuticals, Inc., priority 2005, dated 2010)
